This passage reports IC50 and Ki results from US9675697B2 (THE REGENTS OF THE UNIVERSITY OF MICHIGAN, priority 2013, dated 2017).

In assay [1] the test system is MOLM-13. Put plainly: Cell growth inhibition, CellTiter-Glo, acute leukemia cell line. Format: cell-based. The following applies: Homo sapiens, MOLM-13, 96 h, 4 days. The protocol:
(§1) Cell growth inhibitory activity of representative BET bromodomain inhibitors was determined using CellTiter-Glo® Luminescent Cell Viability Assay. For leukemia cell lines MV-4-11 (ATCC, Manassas, Va.) and MOLM-13 (DSMZ, Germany), cells were seeded in 96-well white opaque cell culture plates at a density of 10,000 cells/well with serially diluted compounds and incubated at 37° C. in an atmosphere of 95% air and 5% CO2 for 4 days. Cell viability was determined using the CellTiter-Glo® Luminescent Cell Viability Assay Kit (Promega, Madison, Wis.) according to the manufacture's instruction. Briefly, a volume of CellTiter-Glo® Reagent equal to the volume of cell culture medium was added to each well, and then the plates were incubated at room temperature for 10-20 minutes. The luminescent signal was measured using a Tecan Infinite M1000 multimode microplate reader (Tecan, Morrisville, N.C.). The half maximal inhibitory concentration (IC50) was calculated using the GraphPad Prism 5 software (GraphPad Software, La Jolla, Calif.).

The subject of assay [2] is MV-4-11. Described as above. The following applies: Homo sapiens, MV4-11, 96 h, 4 days. The assay is classed as cell-based. The protocol:
as §1

In assay [3] the test system is BT-474. Put plainly: Cell growth inhibition, WST-8, breast cancer cell line. Format: cell-based. Particulars: Homo sapiens, BT-474, 96 h, 4 days. As to the method:
(§2) For breast cancer cell lines, cells were seeded in 96-well cell culture plates at a density of 5,000-10,000 cells/well with serially diluted compounds and incubated at 37° C. in an atmosphere of 95% air and 5% CO2 for 4 days. All the breast cancer cell lines were obtained from the ATCC. Cell viability was determined using the WST-8 (2-(2-methoxy-4-nitrophenyl)-3-(4-nitrophenyl)-5-(2,4-disulfophenyl)-2H-tetrazolium, monosodium salt) based Cell Counting-8 Kit (Dojindo Molecular Technologies, Inc., Rockville, Md.) according to the manufacture's instruction. Briefly, WST-8 was added to each well at a final concentration of 10% (v/v), and then the plates were incubated at 37° C. for 1-2 hours for color development. The absorbance was measured at 450 nm using a SPECTRAmax PLUS plate reader (Molecular Devices, Sunnyvale, Calif.). The IC50 was calculated using the GraphPad Prism 5 software.

The subject of assay [4] is MDA-MB-157. The description is as above. Format: cell-based. Particulars: Homo sapiens, MDA-MB-157, 96 h, 4 days. The protocol:
as §2

For assay [5], the system named is MDA-MB-231. Described as above. Format: cell-based. Particulars: Homo sapiens, MDA-MB-231, 96 h, 4 days. As to the method: as §2
The test system of assay [6] is MDA-MB-436. Described as above. The assay is classed as cell-based. The following applies: Homo sapiens, MDA-MB-436, 96 h, 4 days. As to the method: as §2
The subject of assay [7] is SK-BR-3. The description is as above. Format: cell-based. The following applies: Homo sapiens, SK-BR-3, 96 h, 4 days. As to the method:
as §2

The test system of assay [8] is prostate VCaP cell line. Put plainly: Cell growth inhibition, Cell TiterGLO, 4 days. Particulars: Homo sapiens, VCaP, 96 h, treated 4 days, read-out: VCaP cells (IC50 (nM)). The assay is classed as cell-based.
Assay [9] has as its target BRD2 BD1 (Homo sapiens (Human), UniProt P25440). Kind of assay: FP competitive binding assay using Cpd. No. 350 as the probe. Particulars: read-out: BRD2 BD1 Ki; FP, Cpd. No. 350 probe […].
Protocol: (§3) Fluorescence Polarization (FP) competitive binding studies (see above) were carried out using the FAM labeled fluorescent probe Cpd. No. 350 to determine binding affinities of representative compounds to both BD1 and BD2 of BRD2, BRD3, and BRD4 proteins. Equilibrium dissociation constants (Id) values of Cpd. No. 350 to these six proteins were determined from protein saturation experiments by monitoring the total fluorescence polarization of mixtures composed with the fluorescent probe at a fixed concentration and proteins with increasing concentrations up to full saturation. Serial dilutions of testing protein were mixed with Cpd. No. 350 to a final volume of 200 μl in the assay buffer. […] Plates were incubated at room temperature for 30 minutes with gentle shaking to assure equilibrium. […] Kd values of Cpd.
(§4) The IC50 and Ki values of compounds were determined in a competitive binding experiment as described above. […] FP values were measured as described above. IC50 values were determined by nonlinear regression fitting of the competition curves.
Assay [10] has as its target BRD2 BD2 (Homo sapiens (Human), UniProt P25440). Described as above. The following applies: read-out: BRD2 BD2 Ki; FP, Cpd. No. 350 probe […].
Protocol: as §3, §4
Assay [11] has as its target BRD3 BD1 (Homo sapiens (Human), UniProt Q15059). Described as above. The following applies: read-out: BRD3 BD1 Ki; FP, Cpd. No. 350 probe […].
Protocol: as §3, §4
The target of assay [12] is BRD3 BD2 (Homo sapiens (Human), UniProt Q15059). The description is as above. The following applies: read-out: BRD3 BD2 Ki; FP, Cpd. No. 350 probe […].
Sequence of BRD3 BD2 (Q15059 306-415): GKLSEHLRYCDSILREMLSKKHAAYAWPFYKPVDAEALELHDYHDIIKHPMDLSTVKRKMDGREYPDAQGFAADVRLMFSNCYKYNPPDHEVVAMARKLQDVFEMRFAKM
Protocol: as §3, §4
The target of assay [13] is BRD4 BD1 (Homo sapiens (Human), UniProt O60885). The description is as above. Particulars: read-out: BRD4 BD1 Ki; FP, Cpd. No. 350 probe […].
Protocol: as §3, §4
Assay [14] has as its target BRD4 BD2 (Homo sapiens (Human), UniProt O60885). Described as above. Particulars: read-out: BRD4 BD2 Ki; FP, Cpd. No. 350 probe […].
Protocol: as §3, §4

Sequence of BRD2 BD1 (P25440 74-180): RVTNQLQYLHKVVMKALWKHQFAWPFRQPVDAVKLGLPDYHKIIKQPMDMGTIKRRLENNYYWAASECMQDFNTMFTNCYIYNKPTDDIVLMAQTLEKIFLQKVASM
Sequence of BRD3 BD1 (Q15059 34-140): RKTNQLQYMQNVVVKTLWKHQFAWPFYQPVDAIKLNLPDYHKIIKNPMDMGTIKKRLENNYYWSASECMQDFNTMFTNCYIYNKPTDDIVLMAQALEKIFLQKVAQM
Sequence of BRD2 BD2 (P25440 344-453): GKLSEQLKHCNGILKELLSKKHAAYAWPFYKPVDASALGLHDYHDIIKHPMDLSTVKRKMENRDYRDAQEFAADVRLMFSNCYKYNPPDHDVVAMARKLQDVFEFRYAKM

For `COc1cc2c(cc1-c1c(C)noc1C)[nH]c1nc(C)nc(-c3c(C)[nH]c4ccccc34)c12` [Cpd. No. 68], the IC50 in assay [1] was under 100 nM; in assay [2] it was under 100 nM; in assay [3], under 300 nM; in [4], under 300 nM; in assay [5] it was under 300 nM; in assay [6] it was under 300 nM. The IC50 in assay [7] is under 300 nM; in assay [8], 148 nM. Further, the Ki in assay [9] was 3.2 nM; in [10] it was 2.7 nM; in [11] it was 5.1 nM; in assay [12] it was 0.65 nM; in assay [13] it was 7.3 nM; in assay [14], 1.7 nM.
